In US20250163052A1, “cGAS INHIBITORS AND USES THEREOF” (Cornell University, priority 2022, published 2025):

Assays:
IFNB = test: THP1-Dual cells transfected with DNA, Ifnb expression (Quantiluc); type: cell-based; conditions: Homo sapiens; for inhibition at 10 µM: THP-1, 10 μM; for inhibition at 30 µM: THP-1, 30 μM
How it was run: (§1)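 Readouts after overnight incubation: Quantiluc luminescence for Ifnb, Quantiblue for nfkb (both in supernatant) and CellTiter-Glo for viability. Before the DNA stimulus (2 ug/ml, lipofectamine transfection), THP1-Dual cells received compound at several dilutions for 4 h.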

m-cGAS = m-cGAS (Mus musculus, UniProt Q8C6L5); test: Cell-free mouse cGAS enzyme inhibition assay (ATP depletion, Kinase-Glo Max); type: biochemical; conditions: 1 h; for inhibition at 1 µM: read-out: m-cGAS, conc. 1 μM; for inhibition at 10 µM: read-out: m-cGAS, conc. 10 μM
Sequence of m-cGAS (Q8C6L5 whole entry): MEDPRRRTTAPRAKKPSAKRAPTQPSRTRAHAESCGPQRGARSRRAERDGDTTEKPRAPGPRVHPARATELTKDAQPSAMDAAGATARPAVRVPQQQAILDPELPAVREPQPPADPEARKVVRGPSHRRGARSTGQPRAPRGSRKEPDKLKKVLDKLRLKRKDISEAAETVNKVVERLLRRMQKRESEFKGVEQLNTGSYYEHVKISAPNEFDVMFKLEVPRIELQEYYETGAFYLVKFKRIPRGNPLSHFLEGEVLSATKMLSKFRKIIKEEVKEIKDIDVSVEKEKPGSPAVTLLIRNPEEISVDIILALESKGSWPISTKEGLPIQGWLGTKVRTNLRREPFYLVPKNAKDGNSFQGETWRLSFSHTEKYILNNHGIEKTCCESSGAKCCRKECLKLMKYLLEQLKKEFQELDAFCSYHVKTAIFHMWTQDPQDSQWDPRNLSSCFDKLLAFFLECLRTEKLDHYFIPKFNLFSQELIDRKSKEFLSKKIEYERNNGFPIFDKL

THP1 cells = test: THP1-Dual cells, cell viability (CellTiter-Glo); type: cell-based
How it was run: as §1

NFkB-SEAP = test: THP1-Dual cells transfected with DNA, nfkb expression (Quantiblue); type: cell-based; conditions: Homo sapiens; for inhibition at 10 µM: THP-1, 10 μM; for inhibition at 30 µM: THP-1, 30 μM
Procedure: Evaluation of active cGAS inhibitors in THP1 cells (Table 3). Cellular activity of all compounds (in Table 3) was determined using THP1-Dual™ cells as described (Lama et. al., 2019). THP1-Dual™ cells (Invivogen) (50000 cells in 100 μl media) were seeded into each well of a 96-well plate and treated with compounds at various dilution for 4 hours. Subsequently, cells were transfected with DNA (2 ug/ml) and lipofectamine and incubate the cells were incubated overnight. Ifnb expression was measured in cell supernatant using Quantiluc, nfkb expression was determined using Quantiblue, and cell viability using Promega® CellTiter-Glo®.

h-cGAS = h-cGAS (Homo sapiens, UniProt Q8N884); test: Cell-free human cGAS enzyme inhibition assay (ATP depletion, Kinase-Glo Max); type: biochemical; conditions: 3 h; for inhibition at 1 µM: read-out: h-cGAS, conc. 1 μM; for inhibition at 10 µM: read-out: h-cGAS, conc. 10 μM
Sequence of h-cGAS (Q8N884 whole entry): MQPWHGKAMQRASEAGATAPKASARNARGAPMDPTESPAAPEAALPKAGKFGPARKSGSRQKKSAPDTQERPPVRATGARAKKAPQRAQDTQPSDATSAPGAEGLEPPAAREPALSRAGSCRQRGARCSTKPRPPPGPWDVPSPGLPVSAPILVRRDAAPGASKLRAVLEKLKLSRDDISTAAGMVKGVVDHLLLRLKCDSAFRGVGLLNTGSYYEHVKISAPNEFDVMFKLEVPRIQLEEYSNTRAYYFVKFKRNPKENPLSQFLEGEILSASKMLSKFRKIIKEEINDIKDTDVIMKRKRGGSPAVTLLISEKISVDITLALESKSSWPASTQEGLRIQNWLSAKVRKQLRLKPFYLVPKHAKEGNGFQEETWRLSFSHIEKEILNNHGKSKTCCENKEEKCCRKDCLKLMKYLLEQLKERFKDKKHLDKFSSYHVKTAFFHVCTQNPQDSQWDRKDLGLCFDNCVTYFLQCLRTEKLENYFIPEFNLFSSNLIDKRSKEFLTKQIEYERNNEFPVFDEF

Row | Compound | inhibition at 10 µM (IFNB) [%] | inhibition at 30 µM (IFNB) [%] | inhibition at 1 µM (m-cGAS) [%] | inhibition at 10 µM (m-cGAS) [%] | Cell viability 10 μM (THP1 cells) | Cell viability 30 μM (THP1 cells) | inhibition at 10 µM (NFkB-SEAP) [%] | inhibition at 30 µM (NFkB-SEAP) [%] | inhibition at 1 µM (h-cGAS) [%] | inhibition at 10 µM (h-cGAS) [%]
1 | NCC(=O)N1CCc2c(sc3c(Cl)c(Cl)cc(-c4cncnc4)c23)C1 [Compound 73] | < 24 | 75 to 100 | 0 to 24 | 50 to 74 | +++ (+, ++, and +++ mean the compound respectively shows 25-49%; 50-74%; or 75-100% viability to cells) | − (Cell viability <24%, in THP1 cells is expressed as “−”) | < 24 | 75 to 100 | 0 to 24 | 50 to 74
2 | NCC(=O)N1CCc2c(sc3c(Cl)c(Cl)cc(-c4ccc(N)nc4)c23)C1 [Compound 75] | 75 to 100 | 75 to 100 | – | 75 to 100 | +++ (+, ++, and +++ mean the compound respectively shows 25-49%; 50-74%; or 75-100% viability to cells) | +++ (+, ++, and +++ mean the compound respectively shows 25-49%; 50-74%; or 75-100% viability to cells) | < 24 | 75 to 100 | 0 to 24 | 50 to 74
3 | CNc1ccc(-c2cc(Cl)c(Cl)c3sc4c(c23)CCN(C(=O)CN)C4)cn1 [Compound 76] | 75 to 100 | 75 to 100 | – | 75 to 100 | +++ (+, ++, and +++ mean the compound respectively shows 25-49%; 50-74%; or 75-100% viability to cells) | +++ (+, ++, and +++ mean the compound respectively shows 25-49%; 50-74%; or 75-100% viability to cells) | < 24 | 75 to 100 | 0 to 24 | 50 to 74
4 | NCC(=O)N1CCc2c(sc3c(Cl)c(Cl)cc(-c4cc[nH]n4)c23)C1 [Compound 77] | 25 to 49 | 75 to 100 | 25 to 49 | 75 to 100 | +++ (+, ++, and +++ mean the compound respectively shows 25-49%; 50-74%; or 75-100% viability to cells) | − (Cell viability <24%, in THP1 cells is expressed as “−”) | 50 to 74 | 75 to 100 | 25 to 49 | 50 to 74
5 | NCC(=O)N1CCc2c(sc3c(Cl)c(Cl)cc(-c4cccnc4)c23)C1 [Compound 78] | 75 to 100 | 75 to 100 | 25 to 49 | 75 to 100 | + (+, ++, and +++ mean the compound respectively shows 25-49%; 50-74%; or 75-100% viability to cells) | − (Cell viability <24%, in THP1 cells is expressed as “−”) | 50 to 74 | 75 to 100 | 0 to 24 | 50 to 74
6 | NCC(=O)N1CCc2c(sc3c(Cl)c(Cl)cc(-c4ccncc4)c23)C1 [Compound 79] | 75 to 100 | 75 to 100 | 25 to 49 | 75 to 100 | + (+, ++, and +++ mean the compound respectively shows 25-49%; 50-74%; or 75-100% viability to cells) | − (Cell viability <24%, in THP1 cells is expressed as “−”) | 50 to 74 | 75 to 100 | – | 25 to 49
7 | NCC(=O)N1CCc2c(sc3c(Cl)c(Cl)cc(-c4ccco4)c23)C1 [Compound 80] | 50 to 74 | 75 to 100 | 25 to 49 | 75 to 100 | +++ (+, ++, and +++ mean the compound respectively shows 25-49%; 50-74%; or 75-100% viability to cells) | − (Cell viability <24%, in THP1 cells is expressed as “−”) | 50 to 74 | 75 to 100 | 25 to 49 | 75 to 100
8 | NCC(=O)N1CCc2c(sc3c(Cl)c(Cl)cc(-c4cccs4)c23)C1 [Compound 81] | 50 to 74 | 75 to 100 | 0 to 24 | 50 to 74 | +++ (+, ++, and +++ mean the compound respectively shows 25-49%; 50-74%; or 75-100% viability to cells) | − (Cell viability <24%, in THP1 cells is expressed as “−”) | 75 to 100 | 75 to 100 | 0 to 24 | 50 to 74
9 | NCC(=O)N1CCc2c(sc3c(Cl)c(Cl)cc(-c4ccsc4)c23)C1 [Compound 82] | 50 to 74 | 75 to 100 | 0 to 24 | 50 to 74 | +++ (+, ++, and +++ mean the compound respectively shows 25-49%; 50-74%; or 75-100% viability to cells) | + (+, ++, and +++ mean the compound respectively shows 25-49%; 50-74%; or 75-100% viability to cells) | 75 to 100 | 75 to 100 | 0 to 24 | 50 to 74
10 | Cn1ccc(-c2cc(Cl)c(Cl)c3sc4c(c23)CCN(C(=O)CN)C4)n1 [Compound 83] | 50 to 74 | 75 to 100 | 25 to 49 | 75 to 100 | ++ (+, ++, and +++ mean the compound respectively shows 25-49%; 50-74%; or 75-100% viability to cells) | − (Cell viability <24%, in THP1 cells is expressed as “−”) | 75 to 100 | 75 to 100 | 25 to 49 | 50 to 74
11 | NCC(=O)N1CCc2c(sc3c(Cl)c(Cl)cc(-c4nccs4)c23)C1 [Compound 84] | 25 to 49 | 75 to 100 | 0 to 24 | 50 to 74 | +++ (+, ++, and +++ mean the compound respectively shows 25-49%; 50-74%; or 75-100% viability to cells) | − (Cell viability <24%, in THP1 cells is expressed as “−”) | < 24 | 50 to 74 | 25 to 49 | 75 to 100
12 | NCC(=O)N1CCc2c(sc3c(Cl)c(Cl)cc(-c4ccccn4)c23)C1 [Compound 86] | < 24 | 75 to 100 | 0 to 24 | 25 to 49 | +++ (+, ++, and +++ mean the compound respectively shows 25-49%; 50-74%; or 75-100% viability to cells) | − (Cell viability <24%, in THP1 cells is expressed as “−”) | < 24 | 50 to 74 | 0 to 24 | 50 to 74
13 | NCC(=O)N1CCc2c(sc3c(Cl)c(Cl)cc(-c4cncs4)c23)C1 [Compound 87] | 75 to 100 | 75 to 100 | 25 to 49 | 75 to 100 | − (Cell viability <24%, in THP1 cells is expressed as “−”) | − (Cell viability <24%, in THP1 cells is expressed as “−”) | 50 to 74 | 75 to 100 | 0 to 24 | 50 to 74
